Experimental data as given in the supplement of paper PMC10307832.

Key:
AZ3146 + Foretinib = compound: CN1CCC(CC1)OC2=CC(=C(C=C2)NC3=NC=C4C(=N3)N(C(=O)N4C)C5CCCC5)OC [AZ3146] + COc1cc2c(Oc3ccc(NC(=O)C4(C(=O)Nc5ccc(F)cc5)CC4)cc3F)ccnc2cc1OCCCN1CCOCC1 [Foretinib] (partner 0.25 µM); test: relative viability (nuclei count vs DMSO), 5 days (fraction); higher = more cells survive
In short: (§1)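 Dosing by pin tool came one day after lung cancer cell lines were seeded in 1536-well plates, using either one drug or a fixed anchor-drug dose plus five library-drug doses (not always all listed) in √10 steps. After 5 days, nuclei were counted on 4× images. Relative viability is treated-well nuclei count divided by vehicle-well nuclei count, and values are medians of duplicate plates.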

GSK-J4 + Navitoclax = compound: CCOC(=O)CCNc1cc(N2CCc3ccccc3CC2)nc(-c2ccccn2)n1 [GSK-J4] + CC1(C)CCC(c2ccc(Cl)cc2)=C(CN2CCN(c3ccc(C(=O)NS(=O)(=O)c4ccc(N[C@H](CCN5CCOCC5)CSc5ccccc5)c(S(=O)(=O)C(F)(F)F)c4)cc3)CC2)C1 [Navitoclax] (partner 0.5 µM); test: as above
In short: as §1

Row | Cell Line | relative viability (AZ3146 + Foretinib; first compound 0.08 µM) | relative viability (AZ3146 + Foretinib; first compound 0.253 µM) | relative viability (AZ3146 + Foretinib; first compound 0.8 µM) | relative viability (AZ3146 + Foretinib; first compound 2.53 µM) | relative viability (AZ3146 + Foretinib; first compound 8 µM) | relative viability (GSK-J4 + Navitoclax; first compound 0.5 µM) | relative viability (GSK-J4 + Navitoclax; first compound 1.581 µM) | relative viability (GSK-J4 + Navitoclax; first compound 5 µM) | relative viability (GSK-J4 + Navitoclax; first compound 15.81 µM) | relative viability (GSK-J4 + Navitoclax; first compound 50 µM)
1 | NCI-H2342 | 0.928 | 1.03 | 1.16 | 1.01 | 1.07 |  |  |  |  | 
2 | NCI-H1944 | 0.664 | 0.88 | 0.985 | 0.943 | 0.99 | 1.06 | 0.953 | 1.15 | 0.913 | 1
3 | SK-LU-1 | 0.803 | 0.867 | 0.804 | 0.897 | 0.528 | 0.733 | 0.832 | 0.682 | 0.596 | 0.537
4 | HCC-44 |  |  |  |  |  | 0.973 | 0.91 | 1.08 | 0.817 | 0.898
5 | 201T | 0.945 | 1.02 | 1.08 | 1.13 | 1.06 | 1.19 | 1.28 | 1.25 | 1.21 | 1.16
6 | IA-LM | 1.21 | 1.36 | 1.33 | 1.08 | 0.285 | 0.747 | 0.718 | 0.802 | 0.666 | 0.105
7 | NCI-H661 | 0.98 | 1.03 | 0.97 | 0.982 | 0.764 |  |  |  |  | 
8 | NCI-H2087 | 1.06 | 1.11 | 1.12 | 1.05 | 0.531 | 0.795 | 1.08 |  | 0.99 | 0.758
9 | NCI-H647 | 1.01 | 1.21 | 0.857 | 1.16 | 1.21 | 1.02 | 0.737 | 0.981 | 1.06 | 1.09
10 | A-427 | 1.02 | 1.07 | 1 | 0.989 | 1.11 | 0.951 |  | 0.925 | 0.906 | 0.782
11 | NCI-H520 | 0.566 | 0.867 | 0.58 | 0.91 | 0.83 | 1.07 | 0.957 | 1.21 | 0.694 | 1.06
12 | NCI-H1755 | 0.917 | 0.935 | 0.859 | 0.915 | 0.97 | 0.978 | 0.888 | 0.975 | 0.955 | 0.96
13 | NCI-H1975 | 0.915 | 0.886 | 1.04 | 0.977 | 0.362 | 1.05 | 1.11 |  | 1.04 | 1.15
14 | ChaGo-K-1 | 0.93 | 0.823 | 0.872 | 0.923 | 0.816 | 1.09 |  | 1.02 | 1.03 | 0.895
15 | BEN |  | 0.447 | 0.587 | 0.715 | 0.698 | 0.0769 | 0.0597 |  | 0.0496 | 0.042
16 | SW 1573 | 0.897 | 0.732 | 0.983 | 1.15 | 0.884 | 0.941 | 1.1 | 0.951 | 0.823 | 0.705
17 | EPLC-272H |  | 0.784 | 0.629 | 0.732 | 0.721 | 1.14 |  | 1.21 | 0.979 | 1.02

Row | Cell Line | relative viability (AZ3146 + Foretinib; first compound 0.08 µM) | relative viability (AZ3146 + Foretinib; first compound 0.253 µM) | relative viability (AZ3146 + Foretinib; first compound 0.8 µM) | relative viability (AZ3146 + Foretinib; first compound 2.53 µM) | relative viability (AZ3146 + Foretinib; first compound 8 µM) | relative viability (GSK-J4 + Navitoclax; first compound 0.5 µM) | relative viability (GSK-J4 + Navitoclax; first compound 1.581 µM) | relative viability (GSK-J4 + Navitoclax; first compound 5 µM) | relative viability (GSK-J4 + Navitoclax; first compound 15.81 µM) | relative viability (GSK-J4 + Navitoclax; first compound 50 µM)
18 | LK-2 | 0.934 | 1.21 | 1.7 | 1.46 | 1.3 | 0.884 | 0.838 | 0.874 | 0.829 | 1.05
19 | NCI-H23 | 1.02 | 1.08 | 1.19 | 1.01 | 0.612 | 0.856 |  | 0.886 | 0.893 | 0.867
20 | NCI-H441 | 0.92 | 0.949 | 1.06 | 1 | 1.07 | 0.818 | 0.362 | 0.508 | 0.667 | 0.535
21 | NCI-H2009 | 1.11 | 1.28 | 1.26 | 1.22 | 0.957 | 1.14 | 1.12 | 0.951 | 1.14 | 0.882
22 | NCI-H2170 | 1.09 | 0.974 | 0.983 | 1.04 | 1.03 | 0.585 | 0.547 | 0.678 | 0.44 | 0.48
23 | NCI-H1299 | 1.06 | 1.1 | 1.07 | 1.12 | 0.679 | 1.08 | 0.875 | 0.955 | 1.04 | 0.971
24 | HCC-78 | 0.51 | 0.547 | 0.534 | 0.601 | 0.58 | 0.779 | 0.681 | 1.01 |  | 0.689
25 | NCI-H3122 | 0.924 | 1.02 | 0.971 | 0.942 | 1.03 | 1.02 | 1 | 1.02 | 1.04 | 0.973
26 | NCI-H2085 | 0.898 | 1 | 0.977 | 1 | 0.868 | 0.971 | 1.12 | 1.13 | 1.09 | 0.999
27 | HCC-366 | 0.791 | 0.924 | 0.908 | 0.974 | 0.178 | 1.08 | 0.806 |  | 1.02 | 1.03
28 | HCC-827 | 1.08 | 1 | 1.03 | 1.03 | 1.09 | 1.02 | 0.991 | 1.06 | 1 | 0.994
29 | Calu-6 | 0.792 | 0.996 | 0.891 | 0.792 | 0.48 | 0.86 | 0.74 | 0.779 | 0.874 | 0.716
30 | HOP-62 | 1.06 | 1.16 | 1.01 | 1.11 | 1.08 | 0.955 | 0.989 | 1.11 | 1.1 | 0.707
31 | NCI-H1437 | 1.24 | 1.31 | 1.26 | 1.35 | 1.26 | 1.03 | 1.03 | 1.03 | 1.08 | 0.319
32 | PC-14 | 0.891 | 0.9 | 0.969 | 1.02 | 1.02 | 0.939 | 1.02 | 0.948 | 1.02 | 0.926
33 | NCI-H2228 | 0.736 | 0.743 | 0.736 | 0.88 | 0.656 | 1.1 | 0.868 | 1.07 | 0.8 | 0.871
34 | CAL-12T | 1.08 | 1.12 | 1.04 | 0.98 | 0.788 | 1.2 | 1.17 | 1.47 | 1.16 | 1.21
